The source of these data is US9204653B2, “5-fluoro pyrimidine derivatives” (DOW AGROSCIENCES LLC, priority 2008, dated 2015).

The subject of test [1] is Cercospora beticola; Bayer Code CERCBE. Description: Leaf spot of sugar beets. The format is in vivo, Cercospora beticola on sugar beets (variety HH-88). Particulars: 24 h, % disease control rating, one day protectant; for pest or weed control at 25 ppm: read-out: CERCBE 1 DP 25 ppm; for pest or weed control at 75 ppm: read-out: CERCBE 1 DP 75 ppm.
Test [2] has as its system Mycosphaerella graminicola; Anamorph: Septoria tritici; Bayer Code SEPTTR. Description: Leaf blotch of wheat, foliar fungicide treatment, one day protectant (1DP) or three day curative (3DC). The format is in vivo, Septoria tritici on wheat plants (variety Yuma). Particulars: Zymoseptoria tritici.
Test [3] has as its system Venturia inaequalis; Bayer Code VENTIN. Briefly: Apple scab. The format is in vivo. Particulars: 24 h, % disease control rating, one day protectant; for pest or weed control at 25 ppm: read-out: VENTIN 1 DP 25 ppm; for pest or weed control at 75 ppm: read-out: VENTIN 1 DP 75 ppm.
Where [4] appears, read: 24 h, one day protectant (1DP), percent disease control rating, read-out: SETTTR 1DP 25 ppm.
Setting [5] is: 24 h, one day protectant (1DP), percent disease control rating, read-out: SEPTTR 1DP 100 ppm.
Setting [6] is: 72 h, three day curative (3DC), percent disease control rating, read-out: SEPTTR 3DC 25 ppm.
Setting [7] is: 72 h, three day curative (3DC), percent disease control rating, read-out: SEPTTR 3DC 100 ppm.
Where [8] appears, read: 24 h, one day protectant, rating of percent disease control, read-out: SETTTR 1DP 25 ppm.
Where [9] appears, read: 24 h, one day protectant, rating of percent disease control, read-out: SEPTTR 1DP 100 ppm.
Where [10] appears, read: 72 h, three day curative, rating of percent disease control, read-out: SEPTTR 3DC 25 ppm.
[11] abbreviates: 72 h, three day curative, rating of percent disease control, read-out: SEPTTR 3DC 100 ppm.
[12] abbreviates: 24 h, one day protectant (1DP), rating of percent disease control, read-out: SETTTR 1DP 25 ppm.
Setting [13] is: 24 h, one day protectant (1DP), rating of percent disease control, read-out: SEPTTR 1DP 100 ppm.
Setting [14] is: 72 h, three day curative (3DC), rating of percent disease control, read-out: SEPTTR 3DC 25 ppm.
Setting [15] is: 72 h, three day curative (3DC), rating of percent disease control, read-out: SEPTTR 3DC 100 ppm.

Each structure is given as a SMILES string. Like-named read-outs stand apart in the source and are kept apart here.

For `Fc1ccccc1CNC(=S)Nc1nc(OCc2cccs2)ncc1F` [Compound 169], the pest or weed control at 25 ppm in test [1] fell in the range of 0 to 25%; in test [2] (setting [4]), 51 to 75%; in test [2] (setting [6]), 0 to 25%; in test [3] it was 51 to 75%. The figures for the pest or weed control at 75 ppm in test [1] and in test [3] were 0 to 25% and 26 to 50%, respectively. Further, the pest or weed control at 100 ppm in test [2] (setting [5]) lay within 76 to 100%; in test [2] (setting [7]), 0 to 25%.

Consider `C=CCc1cc(COc2ncc(F)c(N)n2)cc(OC)c1OC` [Compound 569], for which the pest or weed control at 25 ppm was 26 to 50% in test [1], 76 to 100% in test [2] (setting [8]), 51 to 75% in test [2] (setting [10]) and 76 to 100% in test [3]. Further, the pest or weed control at 75 ppm in test [1] and in test [3] was 76 to 100% in each case. In addition, the pest or weed control at 100 ppm in test [2] (setting [9]) and in test [2] (setting [11]) was 76 to 100% throughout.

Regarding `COc1ccc(Oc2ncc(F)c(/N=C/N(C)C)n2)cc1` [Compound 187], the pest or weed control at 25 ppm in test [1] is 0 to 25%; in test [2] (setting [12]) it was 0 to 25%; in test [2] (setting [14]), 0 to 25%; in test [3], 51 to 75%. Besides, the pest or weed control at 75 ppm in test [1] and in test [3] was 26 to 50% each time. For the same compound, the pest or weed control at 100 ppm in test [2] (setting [13]) was in the range of 0 to 25%; in test [2] (setting [15]), 51 to 75%.

Turning to `CCOC(=O)C(=O)Nc1nc(OCc2ccc(F)cc2)ncc1F` [Compound 11, N-[5-Fluoro-2-(4-fluorobenzyloxy)pyrimidin-4-yl]oxalamic acid ethyl ester], the pest or weed control at 25 ppm in test [1] lay in the range of 0 to 25%; in test [2] (setting [4]) it was 76 to 100%; in test [2] (setting [6]) it was 76 to 100%; in test [3], 76 to 100%. Further, the results for the pest or weed control at 75 ppm in test [1] and in test [3] were 0 to 25% and 76 to 100%, respectively. Also, the pest or weed control at 100 ppm in test [2] (setting [5]) and in test [2] (setting [7]) was 76 to 100% throughout.

Regarding `CNc1nc(OCc2ccc(OC)c(C(F)(F)F)c2)ncc1F` [Compound 155], the pest or weed control at 25 ppm in test [1] fell in the range of 0 to 25%; in test [2] (setting [4]) it was 51 to 75%; in test [2] (setting [6]) it was 76 to 100%; in test [3], 26 to 50%. In addition, the pest or weed control at 75 ppm in test [1] and in test [3] was 0 to 25% each time. Moreover, the pest or weed control at 100 ppm in test [2] (setting [5]) and in test [2] (setting [7]) was 76 to 100% in each case.

Take `COc1ccc(Oc2ncc(F)c(NC(C)=O)n2)cc1` [Compound 649]: the pest or weed control at 25 ppm in test [1] is 0 to 25%; in test [2] (setting [8]), 0 to 25%; in test [2] (setting [10]), 0 to 25%; in test [3], 26 to 50%. The pest or weed control at 75 ppm in test [1] is 0 to 25%; in test [3], 26 to 50%. The pest or weed control at 100 ppm in test [2] (setting [9]) lay in the range of 26 to 50%; in test [2] (setting [11]) it was 76 to 100%.

For the compound `Nc1nc(OCc2ccc(-c3ccccn3)s2)ncc1F` [Compound 316], the pest or weed control at 25 ppm in test [1] is 51 to 75%; in test [2] (setting [12]), 76 to 100%; in test [2] (setting [14]) it was 76 to 100%; in test [3], 76 to 100%. The pest or weed control at 75 ppm in test [1] and in test [3] was 76 to 100% in each case. In addition, the pest or weed control at 100 ppm in test [2] (setting [13]) and in test [2] (setting [15]) was 76 to 100% each time.

Regarding `CS(=O)(=O)Oc1ncc(F)c(N)n1` [Compound 337], the pest or weed control at 25 ppm in test [1] lay within 51 to 75%; in test [2] (setting [12]) it was 26 to 50%; in test [2] (setting [14]), 26 to 50%; in test [3], 51 to 75%. The pest or weed control at 75 ppm in test [1] and in test [3] was 76 to 100% throughout. The results for the pest or weed control at 100 ppm in test [2] (setting [13]) and in test [2] (setting [15]) were 76 to 100% and 26 to 50%, respectively.

Regarding `CONc1nc(OCc2ccc(F)cc2)ncc1F` [Compound 233], the pest or weed control at 25 ppm in test [1] was in the range of 0 to 25%; in test [2] (setting [12]), 51 to 75%; in test [2] (setting [14]), 76 to 100%; in test [3] it was 0 to 25%. Also, the results for the pest or weed control at 75 ppm in test [1] and in test [3] were 0 to 25% and 51 to 75%, respectively. Besides, the pest or weed control at 100 ppm in test [2] (setting [13]) and in test [2] (setting [15]) was 76 to 100% each time.

`COc1ncc(Oc2ncc(F)c(N)n2)cn1` [Compound 488]: the pest or weed control at 25 ppm in test [1] fell in the range of 0 to 25%; in test [2] (setting [12]), 0 to 25%; in test [2] (setting [14]), 0 to 25%; in test [3], 26 to 50%. For the same compound, the pest or weed control at 75 ppm lay in the range of 0 to 25% in test [1] and 26 to 50% in test [3]. The pest or weed control at 100 ppm in test [2] (setting [13]) and in test [2] (setting [15]) was 0 to 25% each time.

For `Nc1nc(OCc2csc3ccccc23)ncc1F` [Compound 630], the pest or weed control at 25 ppm in test [1] was 0 to 25%; in test [2] (setting [8]), 76 to 100%; in test [2] (setting [10]), 76 to 100%; in test [3], 51 to 75%. The pest or weed control at 75 ppm in test [1] fell in the range of 0 to 25%; in test [3] it was 76 to 100%. Besides, the pest or weed control at 100 ppm in test [2] (setting [9]) and in test [2] (setting [11]) was 76 to 100% in each case.

As for `COc1cc(COc2ncc(F)c(N)n2)cc(Cl)n1` [Compound 311], the pest or weed control at 25 ppm fell in the range of 26 to 50% in test [1], 76 to 100% in test [2] (setting [12]), 76 to 100% in test [2] (setting [14]) and 26 to 50% in test [3]. Further, the pest or weed control at 75 ppm in test [1] and in test [3] was 26 to 50% each time. Besides, the pest or weed control at 100 ppm in test [2] (setting [13]) and in test [2] (setting [15]) was 76 to 100% each time.

In the case of `O=C(Nc1nc(OCc2cccc(F)c2)ncc1F)OCc1ccc([N+](=O)[O-])cc1` [Compound 180], the pest or weed control at 25 ppm in test [1] lay in the range of 0 to 25%; in test [2] (setting [4]), 0 to 25%; in test [2] (setting [6]) it was 0 to 25%; in test [3] it was 26 to 50%. The pest or weed control at 75 ppm in test [1] lay in the range of 26 to 50%; in test [3], 0 to 25%. In addition, the figures for the pest or weed control at 100 ppm in test [2] (setting [5]) and in test [2] (setting [7]) were 51 to 75% and 0 to 25%, respectively.

As to `Cc1c(COc2ncc(F)c(N)n2)cnn1C` [Compound 800], the pest or weed control at 25 ppm in test [1], in test [2] (setting [12]), in test [2] (setting [14]) and in test [3] was 76 to 100% in each case. Further, the pest or weed control at 75 ppm in test [1] and in test [3] was 76 to 100% throughout. For the same compound, the pest or weed control at 100 ppm in test [2] (setting [13]) and in test [2] (setting [15]) was 76 to 100% throughout.

For `Fc1ccccc1CNc1nc(OCC(F)(F)F)ncc1F` [Compound 894], in test [1], the pest or weed control at 25 ppm was 0 to 25% and the pest or weed control at 75 ppm lay in the range of 0 to 25%. This compound also registered a pest or weed control at 50 ppm in test [2] (24 h, % disease control rating, one day protectant, 50 ppm) of 0 to 25%. Also, in test [2] (24 h, % disease control rating, one day protectant, 200 ppm), the pest or weed control at 200 ppm was in the range of 0 to 25%. In test [3], the pest or weed control at 25 ppm fell in the range of 0 to 25% and the pest or weed control at 75 ppm fell in the range of 26 to 50%.

Turning to `Nc1nc(OCC2CCCC2)ncc1F` [Compound 370], the pest or weed control at 25 ppm in test [1] lay in the range of 26 to 50%; in test [2] (setting [12]), 0 to 25%; in test [2] (setting [14]), 0 to 25%; in test [3], 26 to 50%. The pest or weed control at 75 ppm in test [1] and in test [3] was 26 to 50% each time. Besides, the pest or weed control at 100 ppm in test [2] (setting [13]) and in test [2] (setting [15]) was 0 to 25% each time.

With `Fc1cnc(OCc2ccccc2)nc1/N=C/N1CCOCC1` [Compound 626], the pest or weed control at 25 ppm in test [1] fell in the range of 0 to 25%; in test [2] (setting [8]), 76 to 100%; in test [2] (setting [10]), 76 to 100%; in test [3], 26 to 50%. In addition, the pest or weed control at 75 ppm in test [1] lay within 0 to 25%; in test [3] it was 76 to 100%. Further, the pest or weed control at 100 ppm in test [2] (setting [9]) and in test [2] (setting [11]) was 76 to 100% throughout.

As for `Nc1nc(Oc2cccc(Cl)c2)ncc1F` [Compound 593], the values for the pest or weed control at 25 ppm in test [1], in test [2] (setting [8]) and in test [3] were 26 to 50%, 0 to 25% and 76 to 100%, respectively. Also, the pest or weed control at 75 ppm fell in the range of 51 to 75% in test [1] and 76 to 100% in test [3]. The pest or weed control at 100 ppm in test [2] (setting [9]) lay within 51 to 75%.
